Measured values reported in patent US10604555B2, “GIP derivatives and uses thereof” (priority 2018, dated 2020).
Marks after values point to notes of the source that are not given here.

Legend:
[1] = tested on: diet-induced obese (DIO) mice; assay: Sub-chronic in vivo study in obese mice: food intake and body weight; set-up: species or system C57BL/6J mice; settings: for effect on body weight (in words) / effect on food intake (in words) / Cumulative food intake (kcals) Day 14: DIO mice; for effect on body weight (in words) / effect on food intake (in words): Tables 6-8, compound 47 2 nmol/kg, GIP derivatives 30 nmol/kg; for Cumulative food intake (kcals) Day 14 / Absolute BW (grams) Day 14 / Change in BW (%) Day 14: once daily s.c.; for Cumulative food intake (kcals) Day 14 / Absolute BW (grams) Day 0 / Absolute BW (grams) Day 14 / Change in BW (%) Day 14: mean ± SEM; for Absolute BW (grams) Day 0: Day 0 (before treatment)
From the text: (§1) The purpose of this example is to assess the in vivo effect of the GIP derivatives of the present invention alone and in combination with a GLP-1 receptor agonist on food intake, body weight, and glucose tolerance in diet-induced obese (DIO) mice. The GLP-1 receptor agonist used for this example was a semaglutide-like molecule that has the same pharmacological properties as semaglutide, but a slightly different structure. The compound may be synthesised using methods known in the art, e.g. as described by methods of present Example 1 or as described in WO 2006/097537, example 4.
(§2) The animals were treated once daily with the GLP-1 receptor agonist (compound no. 47) and/or a GIP derivative of the present invention exemplified by compound no.'s 5, 25 and 31, to assess weight loss, efficacy and glucose tolerance. Animals and Diet
(§3) All animal protocols were approved by an Institutional Animal Care and Use Committee and Ethical Review Committee of Novo Nordisk. Animals were housed according to Novo Nordisk rodent housing standards, and were given ad libitum access to food and water under controlled lighting (12 h:12 h light/dark cycle; lights off 18:00-06:00), temperature (23±2° C.) and relative humidity (50±20%) conditions. DIO male C57BL/6J mice maintained on a high fat diet (45% kcal fat, RD12451, Research Diets, New Brunswick, N.J., USA) for 22 weeks were obtained from Charles River (France). Upon arrival, the mice were single-housed (one mouse per cage) and allowed to acclimate to their new environment for two weeks prior to the start of treatment.
(§4) Prior to initiation of the study, animals were single-housed and acclimated to handling for 7 days. The DIO mice were distributed into groups (n=8/group) such that statistical variations in the mean and standard deviations of fat mass and body weight were minimized between groups. Animals were dosed once daily, subcutaneously with either vehicle or test compound.
(§5) All compounds in the study were formulated in the following buffer: 50 mM phosphate; 70 mM sodium chloride; 0.05% polysorbate 80, pH 7.4. Dosing solutions were formulated in glass vials and stored at 2-8° C. Dosing solutions were brought to room temperature before dosing and returned to 2-8° C. after dosing.
Body weight (BW) and food intake were measured immediately prior to dosing each day. The average starting body weight of the mice prior to start of treatment was 45.2±0.2 grams.

[2] = tested on: diet-induced obese (DIO) mice; assay: Sub-chronic in vivo study in obese mice: IPGTT (intraperitoneal glucose tolerance test); set-up: species or system C57BL/6J mice; settings: for effect on glucose tolerance (in words): DIO mice, Tables 6-8, compound 47 2 nmol/kg, GIP derivatives 30 nmol/kg; for iAUC, IPGTT (mM*min) Day 15: i.p. glucose 2 g/kg, 4 h fasted, baseline subtracted AUC, mean ± SEM
From the text: as §1, §2, §3, §4, §5
On the day of the glucose tolerance test (day 15), animals were fasted for 4 h. Food was removed and animals were transferred to fresh cages. Animals had access to water but not to food. Tail blood glucose levels were measured and mice were injected (t=0) with an intra-peritoneal (i.p.) glucose load of 2 g/kg (200 mg/ml glucose solution, dose volume 10 ml/kg). Tail blood glucose levels were measured at times 0, 15, 30, 60, 90, 120 minutes following the i.p. glucose load. Stratification of the animals during the IPGTT was such that for example two mice from group 1 are dosed followed by two mice from group 2, 3, 4, before the next two mice from group 1, 2, 3 etc. were handled. This was to allow for equal distribution of “time of day” throughout all groups.

[3] = Study 1, 47 2 nmol/kg and/or 5 30 nmol/kg
[4] = Study 2, compound no. 47 2 nmol/kg and/or compound no. 25 30 nmol/kg
[5] = Study 2, 47 2 nmol/kg and/or 25 30 nmol/kg
[6] = Study 3, 47 2 nmol/kg, 31 30 nmol/kg

Row | Substance | effect on body weight (in words) [1] | effect on food intake (in words) [1] | Cumulative food intake (kcals) Day 14 ([1]; Study 1, compound no. 47 2 nmol/kg and/or compound no. 5 30 nmol/kg) | Absolute BW (grams) Day 0 ([1]; Study 1) | Absolute BW (grams) Day 14 [1, 3] | Change in BW (%) Day 14 [1, 3] | Cumulative food intake (kcals) Day 14 [1, 4] | Absolute BW (grams) Day 0 ([1]; Study 2) | Absolute BW (grams) Day 14 [1, 5] | Change in BW (%) Day 14 [1, 5] | Cumulative food intake (kcals) Day 14 ([1]; Study 3, compound no. 47 2 nmol/kg and GIP compound no. 31 30 nmol/kg) | Absolute BW (grams) Day 0 ([1]; Study 3) | Absolute BW (grams) Day 14 [1, 6] | Change in BW (%) Day 14 [1, 6] | effect on glucose tolerance (in words) [2] | iAUC, IPGTT (mM*min) Day 15 [2, 3] | iAUC, IPGTT (mM*min) Day 15 [2, 5] | iAUC, IPGTT (mM*min) Day 15 [2, 6]
1 | N^6,26-{18-[N-(17-carboxyheptadecanoyl)-D-γ-glutamyl]-10-oxo-3,6,12,15-tetraoxa-9,18-diazaoctadecanoyl}-[8-(2-amino-2-propanoic acid), 34-L-arginine]human glucagon-like peptide 1(7-37) [Compound 47] | body weight loss | reduction in food intake | 146.3 ± 6.8 ^b kcals | 44.4 ± 1.0 ^a grams | 38.5 ± 1.2 ^bc grams | −13.2 ± 3.3 ^c % | 134.9 ± 4.3 ^b kcals | 40.2 ± 1.2 ^a grams | 34.8 ± 1.2 ^b grams | −13.6 ± 0.7 ^c % | 140.2 ± 6.7 ^b kcals | 45.2 ± 1.4 ^a grams | 40.0 ± 1.3 ^a grams | −11.2 ± 1.6 ^c % | improvement in glucose tolerance | 543 ± 94 ^a mM*min | 503 ± 55 ^b mM*min | 1441 ± 135 ^c mM*min
2 | N{1}-acetyl,N{Epsilon-24}-[(4S)-4-carboxy-4-[[(4S)-4-carboxy-4-[[(4S)-4-carboxy-4-[[4-[(19-carboxynonadecanoylamino)methyl]cyclohexanecarbonyl]amino]butanoyl]-amino]butanoyl]amino]butanoyl]-[D-Tyr1,Nle14,Arg18,Aib20,Lys24]-hGIP(1-31) [Compound 25] | minor body weight loss | minor effect on food intake | – | – | – | – | 170.2 ± 7.3 ^b kcals | 41.1 ± 1.0 ^a grams | 38.8 ± 1.0 ^a grams | −5.6 ± 0.8 ^b % | – | – | – | – | improved glucose tolerance | – | 518 ± 36 ^b mM*min | –
